Experimental data taken from ChEMBL document CHEMBL1201862, “PubChem BioAssay data set” (2004).
Calls of active or inactive are those of the source.

Assays:
[1] = target: T1, Endoribonuclease toxin MazF (Escherichia coli K-12, UniProt P0AE70); assay: MazF toxin RNase activators, dose response, biochemical, fluorescence, single-stranded RNA substrate, uHTS hits (AID 588481); assay type: functional
T1 sequence (P0AE70 whole entry): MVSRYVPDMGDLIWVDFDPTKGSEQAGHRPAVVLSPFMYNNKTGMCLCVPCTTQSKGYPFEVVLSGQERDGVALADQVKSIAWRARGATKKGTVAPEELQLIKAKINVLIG

[2] = target: T1, Endoribonuclease toxin MazF; assay: fluorescent RNA oligo signal without MazF, dose response, counter-screen for MazEF activator project, biochemical, fluorescence, single-stranded RNase substrate (AID 588502); assay type: functional
[3] = target: T2, Sentrin-specific protease 7 (Homo sapiens, UniProt Q9BQF6); assay: SENP7 protease inhibitors, SAR follow-up, biochemical, luminescence (AID 504497); assay type: functional
T2 sequence (Q9BQF6 whole entry): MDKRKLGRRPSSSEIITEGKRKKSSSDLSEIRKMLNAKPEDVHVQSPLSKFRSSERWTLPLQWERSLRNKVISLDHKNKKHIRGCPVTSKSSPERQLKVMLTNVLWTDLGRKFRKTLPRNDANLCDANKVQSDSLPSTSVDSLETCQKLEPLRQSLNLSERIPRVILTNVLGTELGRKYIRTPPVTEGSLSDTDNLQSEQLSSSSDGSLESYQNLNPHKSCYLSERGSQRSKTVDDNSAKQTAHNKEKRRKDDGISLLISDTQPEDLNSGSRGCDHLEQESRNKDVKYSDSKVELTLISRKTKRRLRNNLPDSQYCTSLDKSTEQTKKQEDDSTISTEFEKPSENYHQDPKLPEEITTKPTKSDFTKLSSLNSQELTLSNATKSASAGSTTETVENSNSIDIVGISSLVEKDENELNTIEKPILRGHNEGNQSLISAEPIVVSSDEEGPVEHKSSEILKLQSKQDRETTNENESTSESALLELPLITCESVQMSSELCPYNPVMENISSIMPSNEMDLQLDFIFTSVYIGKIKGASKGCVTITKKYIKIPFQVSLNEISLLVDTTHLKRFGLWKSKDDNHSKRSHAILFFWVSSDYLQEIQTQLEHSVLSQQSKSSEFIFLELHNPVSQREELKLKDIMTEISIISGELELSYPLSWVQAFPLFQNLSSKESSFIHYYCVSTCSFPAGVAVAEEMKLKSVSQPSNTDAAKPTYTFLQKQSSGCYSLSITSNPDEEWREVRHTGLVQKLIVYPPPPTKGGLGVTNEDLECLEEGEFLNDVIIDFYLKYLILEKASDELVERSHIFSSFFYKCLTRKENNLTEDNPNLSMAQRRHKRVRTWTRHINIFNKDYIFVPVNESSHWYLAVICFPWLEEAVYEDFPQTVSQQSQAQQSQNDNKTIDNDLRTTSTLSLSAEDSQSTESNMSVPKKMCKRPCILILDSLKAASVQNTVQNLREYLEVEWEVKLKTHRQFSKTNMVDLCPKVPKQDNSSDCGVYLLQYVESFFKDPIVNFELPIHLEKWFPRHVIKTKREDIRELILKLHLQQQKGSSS

[4] = target: T3, Sentrin-specific protease 6 (Homo sapiens, UniProt Q9GZR1); assay: SAR Analysis of small molecule inhibitors of Sentrin-specific protease 6 (SENP6) using a Luminescent assay. [Related pubchem assays (depositor defined):AID2582, AID2599]; assay type: functional
T3 sequence (Q9GZR1 whole entry): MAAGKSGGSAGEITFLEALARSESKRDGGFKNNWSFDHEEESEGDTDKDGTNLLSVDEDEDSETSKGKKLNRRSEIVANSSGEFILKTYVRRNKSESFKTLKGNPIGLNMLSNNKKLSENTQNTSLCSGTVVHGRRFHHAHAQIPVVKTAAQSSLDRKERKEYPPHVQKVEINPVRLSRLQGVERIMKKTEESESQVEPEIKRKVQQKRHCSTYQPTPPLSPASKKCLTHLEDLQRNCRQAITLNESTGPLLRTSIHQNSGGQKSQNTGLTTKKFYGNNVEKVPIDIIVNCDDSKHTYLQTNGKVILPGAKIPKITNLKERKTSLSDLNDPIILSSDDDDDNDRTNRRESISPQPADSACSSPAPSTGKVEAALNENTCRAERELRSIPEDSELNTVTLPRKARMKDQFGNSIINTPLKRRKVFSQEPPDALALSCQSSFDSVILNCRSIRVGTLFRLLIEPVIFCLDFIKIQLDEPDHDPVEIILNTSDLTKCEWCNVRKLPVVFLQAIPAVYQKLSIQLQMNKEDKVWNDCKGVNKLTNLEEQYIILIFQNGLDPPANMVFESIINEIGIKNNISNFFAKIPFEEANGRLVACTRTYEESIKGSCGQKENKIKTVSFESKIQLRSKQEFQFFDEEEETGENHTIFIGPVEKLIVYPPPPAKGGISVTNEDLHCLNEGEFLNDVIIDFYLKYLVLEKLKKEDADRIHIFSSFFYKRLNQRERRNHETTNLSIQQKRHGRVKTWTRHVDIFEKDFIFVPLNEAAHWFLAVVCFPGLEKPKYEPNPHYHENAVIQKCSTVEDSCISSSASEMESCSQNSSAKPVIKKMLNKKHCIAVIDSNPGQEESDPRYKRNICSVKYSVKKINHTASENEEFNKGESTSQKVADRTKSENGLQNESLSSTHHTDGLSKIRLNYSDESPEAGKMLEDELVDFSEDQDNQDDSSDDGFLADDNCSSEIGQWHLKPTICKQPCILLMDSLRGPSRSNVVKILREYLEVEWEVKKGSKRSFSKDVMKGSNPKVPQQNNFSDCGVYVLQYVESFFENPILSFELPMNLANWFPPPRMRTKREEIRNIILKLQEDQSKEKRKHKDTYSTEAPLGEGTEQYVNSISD

Caspase-3 = target: T4, Caspase-3 (Homo sapiens, UniProt P42574); assay: SAR Analysis of small molecule inhibitors of Sentrin-specific proteases (SENPs) using a Caspase-3 Selectivity assay. [Related pubchem assays (depositor defined):AID2540, AID2599, AID434973, AID489001]; assay type: functional
T4 sequence (P42574 whole entry): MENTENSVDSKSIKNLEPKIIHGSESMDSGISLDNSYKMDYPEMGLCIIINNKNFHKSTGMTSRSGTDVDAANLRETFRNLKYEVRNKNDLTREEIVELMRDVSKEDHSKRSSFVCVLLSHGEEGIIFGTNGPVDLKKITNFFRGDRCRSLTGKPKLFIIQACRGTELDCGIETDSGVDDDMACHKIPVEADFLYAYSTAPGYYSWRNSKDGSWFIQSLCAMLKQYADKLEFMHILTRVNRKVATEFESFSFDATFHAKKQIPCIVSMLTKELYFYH

[5] = target: T5, Sentrin-specific protease 8 (Homo sapiens, UniProt Q96LD8); assay: SENP8 protease inhibitors, SAR follow-up, biochemical, luminescence (AID 504501); assay type: functional
T5 sequence (Q96LD8 whole entry): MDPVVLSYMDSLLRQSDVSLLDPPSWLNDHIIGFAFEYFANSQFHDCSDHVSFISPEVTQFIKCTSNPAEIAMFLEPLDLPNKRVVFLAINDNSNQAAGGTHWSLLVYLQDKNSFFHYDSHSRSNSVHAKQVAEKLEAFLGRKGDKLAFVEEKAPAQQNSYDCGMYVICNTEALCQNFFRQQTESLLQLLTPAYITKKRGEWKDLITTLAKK

P388/ADR = assay: cells; assay type: functional; conditions: Mus musculus
P388 = assay: cells; assay type: functional; conditions: Mus musculus
SN12K1 = assay: cells; assay type: functional; conditions: Homo sapiens, SN12K1
[6] = cytotoxicity in HEK-293T cells, dose response, cytotoxicity control for BCR NF-kB inhibitor project, luminescence, B-cell screen hits (AID 489021); assay type: functional, cell-based;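 also: HEK-293T cells carrying an NF-kB luciferase reporter; cells exposed to compound for about 14 hours before viability readout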
[7] = target: T6, High affinity choline transporter 1 (Homo sapiens, UniProt Q9GZV3); assay: CHT inhibitors, dose response, cell-based, 5-point CRC, membrane potential dye (AID 504840); assay type: functional
T6 sequence (Q9GZV3 whole entry): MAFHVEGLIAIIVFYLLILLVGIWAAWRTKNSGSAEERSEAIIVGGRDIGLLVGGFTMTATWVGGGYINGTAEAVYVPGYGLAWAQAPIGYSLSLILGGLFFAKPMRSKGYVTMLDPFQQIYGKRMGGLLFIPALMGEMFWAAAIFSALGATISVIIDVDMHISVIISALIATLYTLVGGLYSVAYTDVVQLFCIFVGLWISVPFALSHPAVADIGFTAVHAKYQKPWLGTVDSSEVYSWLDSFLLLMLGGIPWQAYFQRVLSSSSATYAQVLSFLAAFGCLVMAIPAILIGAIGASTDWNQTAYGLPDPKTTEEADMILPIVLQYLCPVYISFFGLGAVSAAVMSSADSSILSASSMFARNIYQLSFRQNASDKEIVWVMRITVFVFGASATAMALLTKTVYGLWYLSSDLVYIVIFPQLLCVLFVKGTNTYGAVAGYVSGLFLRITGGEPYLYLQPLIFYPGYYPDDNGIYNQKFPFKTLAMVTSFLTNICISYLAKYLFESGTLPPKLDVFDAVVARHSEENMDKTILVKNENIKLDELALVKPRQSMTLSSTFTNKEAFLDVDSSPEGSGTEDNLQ

[8] = target: T7, Zinc finger protein mex-5 (Caenorhabditis elegans, UniProt Q9XUB2); assay: MEX-5/TCR-2 RNA interaction inhibitors, dose response, biochemical, C. elegans, fluorescence polarization (AID 1960)
T7 sequence (Q9XUB2 whole entry): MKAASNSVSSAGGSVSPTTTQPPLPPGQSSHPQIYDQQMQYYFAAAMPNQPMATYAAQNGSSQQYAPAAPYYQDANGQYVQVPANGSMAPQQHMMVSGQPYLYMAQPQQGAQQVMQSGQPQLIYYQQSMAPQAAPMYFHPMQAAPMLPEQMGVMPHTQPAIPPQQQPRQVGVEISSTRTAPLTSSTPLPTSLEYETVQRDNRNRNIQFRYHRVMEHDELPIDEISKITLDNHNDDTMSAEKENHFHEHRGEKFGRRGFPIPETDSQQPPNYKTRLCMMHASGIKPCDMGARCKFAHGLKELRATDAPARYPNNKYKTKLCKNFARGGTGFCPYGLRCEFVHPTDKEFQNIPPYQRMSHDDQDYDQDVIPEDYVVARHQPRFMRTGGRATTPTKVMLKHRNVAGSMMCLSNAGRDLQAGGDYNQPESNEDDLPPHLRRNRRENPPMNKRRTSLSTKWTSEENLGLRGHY

[9] = target: T8, RNA-binding protein pos-1 (Caenorhabditis elegans, UniProt G5EF15); assay: inhibitors of POS-1/mex-3 RNA binding, dose response, biochemical, fluorescence polarization (AID 1964);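 also: purified POS-1 fused to maltose binding protein made in E. coli; potency of compounds blocking POS-1 binding to fluorescent RNA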
T8 sequence (G5EF15 whole entry): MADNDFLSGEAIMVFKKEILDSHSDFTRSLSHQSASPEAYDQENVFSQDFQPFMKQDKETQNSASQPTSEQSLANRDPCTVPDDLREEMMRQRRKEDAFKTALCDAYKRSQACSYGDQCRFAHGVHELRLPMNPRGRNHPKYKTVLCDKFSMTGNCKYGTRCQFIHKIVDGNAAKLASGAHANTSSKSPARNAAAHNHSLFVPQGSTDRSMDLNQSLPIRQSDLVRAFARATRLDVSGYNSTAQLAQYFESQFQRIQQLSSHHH

CCCCNC(=O)/C(C#N)=c1\s/c(=C\c2ccccc2OC(F)F)c(=O)n1CCCOC
EC50 [1]: > 99 µM (inactive) | EC50 [2]: 88.5 µM (inactive)

CN(C)c1ccc(/C=N/NC(=O)c2cnc3ccccc3c2)cc1
EC50 [1]: > 99 µM (inactive) | EC50 [2]: 26.4 µM (inactive)

Fc1ccc(N/N=C/c2c[nH]c3ccccc23)cc1
IC50 [3]: 27.2 µM (active) | IC50 [4]: 42.2 µM (active) | IC50 (Caspase-3): > 99 µM (inactive) | IC50 [5]: 45.2 µM (active)

COC1=C(C)C(=O)C2=C(C1=O)C1C3CC4=C(C(=O)C(OC)=C(C)C4=O)C(CNC(=O)C(C)O)N3C(C#N)C(C2)N1C (centres undefined)
GI50 (P388/ADR): 0.203 µM (active) | GI50 (P388): < 0.01 µM (active) | GI50 (SN12K1): < 0.01 µM (active)

O=C(O)CCN1C(=O)/C(=C/c2cccc(OCC(=O)Nc3ccc(Cl)cc3)c2)SC1=S
IC50 [3]: 78.2 µM (active) | IC50 [4]: 62.1 µM (active) | IC50 (Caspase-3): > 99 µM (inactive) | IC50 [5]: 92.8 µM (active)

O=C(Nc1ccc(F)cc1)c1ccc2c(c1)OCO2
IC50 [3]: 2.75 µM (active) | IC50 [4]: 7.53 µM (active) | IC50 (Caspase-3): 1.92 µM (active) | IC50 [5]: 8.03 µM (active)

CCCCOc1ccc(OCCCC)c2c1NC1(N2)C(=O)N(C(C)=O)c2ccccc21
EC50 [1]: > 99 µM (inactive) | EC50 [2]: > 99 µM (inactive)

O=C1ON(Cc2ccccc2)C(c2ccccc2)N1c1ccccc1 (centres undefined)
GI50 (P388/ADR): 54 µM (inactive) | GI50 (P388): 7.45 µM (inactive) | GI50 (SN12K1): > 100 µM (inactive)

C=CCN1C(=O)NC(=O)/C(=C(/CC)NC(C)c2ccccc2)C1=O (centres undefined)
IC50 [6]: > 80 µM (inactive) | IC50 [7]: 1.91 µM (active)

Cn1nc(C(F)(F)F)c(-c2ccccc2)c1NC(=O)c1cccnc1
IC50 [7]: 13.2 µM (active)

Cc1n[nH]c(C)c1CCCCOc1ccccc1[N+](=O)[O-]
IC50 [7]: 12.6 µM (active)

O=S(=O)(O)c1ccc(/N=N\c2ccc(/N=N/c3ccc(/C=C/c4ccc(/N=[N+](\[O-])c5ccc(/C=C/c6ccc(/N=N/c7ccc(/N=N/c8ccc(S(=O)(=O)O)cc8)c8ccccc78)cc6S(=O)(=O)O)c(S(=O)(=O)O)c5)cc4S(=O)(=O)O)c(S(=O)(=O)O)c3)c3ccccc23)cc1
GI50 (P388): > 100 µM (inactive) | GI50 (SN12K1): > 100 µM (inactive)

COc1ccc(C(=O)NN=c2c(=O)c3ccccc3c2=O)cc1
IC50 [3]: > 99 µM (inactive) | IC50 [4]: 4.15 µM (active) | IC50 (Caspase-3): > 99 µM (inactive) | IC50 [5]: > 99 µM (inactive)

CCOc1cccc(C2C(C(=O)c3ccc(C)o3)=C(O)C(=O)N2c2nccs2)c1 (centres undefined)
EC50 [8]: 1.27 µM (active) | EC50 [9]: 1.41 µM (inconclusive) | EC50 [1]: 16.9 µM (active) | EC50 [2]: > 99 µM (inactive)

CC(C)(C)C(=O)Oc1cccc(Nc2ncnc3ccccc23)c1
IC50 [7]: 13.8 µM (active)
